From patent publication US20230416228A1 (Forkhead Biotherapeutics, Inc., priority 2020, published 2023)

Biological target: T1, human FOXO1 (constitutively active form Thr24Ala, Ser256Ala, Ser319Ala) (Homo sapiens, UniProt Q12778, S256A/S319A/T24A)
T1 construct: expressed in transfected cells; host or cells: HEK293 cells transfected with pcDNA3.1 plasmid
Assay: FOXO1 inhibitor activity assay: cell-based transcriptional (luciferase) reporter assay in HEK293 cells
Conditions: HEK293 cells transfected with insulin response element firefly luciferase reporter, FOXO1 and Renilla luciferase; 10-point dose response 50 μM to 2.5 nM; 24 hours
Method in brief: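 IC50 and maximal inhibition were fitted by 4-parameter logistic regression on normalized firefly/Renilla luciferase ratios. The 0% reference used RFP in place of FOXO1, and the 100% reference was DMSO-only with all plasmids.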

T1 sequence (Q12778 whole entry T24A/S256A/S319A): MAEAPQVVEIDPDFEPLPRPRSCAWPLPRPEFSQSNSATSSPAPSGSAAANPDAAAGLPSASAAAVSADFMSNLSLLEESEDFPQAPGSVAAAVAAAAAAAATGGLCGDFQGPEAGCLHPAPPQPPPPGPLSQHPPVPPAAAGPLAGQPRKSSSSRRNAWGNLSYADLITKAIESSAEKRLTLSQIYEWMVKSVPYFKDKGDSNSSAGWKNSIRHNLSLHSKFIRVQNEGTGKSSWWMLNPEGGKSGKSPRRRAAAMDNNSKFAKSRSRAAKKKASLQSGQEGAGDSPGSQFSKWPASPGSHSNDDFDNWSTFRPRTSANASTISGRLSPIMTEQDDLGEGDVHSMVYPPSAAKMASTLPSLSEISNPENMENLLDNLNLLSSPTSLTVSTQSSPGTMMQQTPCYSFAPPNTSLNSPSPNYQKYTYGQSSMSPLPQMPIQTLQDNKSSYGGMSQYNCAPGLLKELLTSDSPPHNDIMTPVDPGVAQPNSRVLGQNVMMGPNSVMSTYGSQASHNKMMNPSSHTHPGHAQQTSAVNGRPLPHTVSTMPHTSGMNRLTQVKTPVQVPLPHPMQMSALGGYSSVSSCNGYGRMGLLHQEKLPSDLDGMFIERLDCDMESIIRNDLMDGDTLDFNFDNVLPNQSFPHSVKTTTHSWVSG

Structure (SMILES) | IC50 [nM]
COc1ccc(C(=O)Nc2cc(-c3nc4cc(F)ccc4[nH]3)n(C)n2)cc1Cl [Compound A-126, 3-chloro-N-[5-(5-fluoro-1H-benzimidazol-2-yl)-1-methyl-pyrazol-3-yl]-4-methoxy-benzamide] | < 100
COc1cc(F)c2[nH]c(-c3cc(NC(=O)c4ccc(OC)c(Cl)c4)n[nH]3)nc2c1 [Compound A-127, 3-chloro-N-[5-(7-fluoro-5-methoxy-1H-benzimidazol-2-yl)-1H-pyrazol-3-yl]-4-methoxy-benzamide] | < 100
COC1CN(c2ccc(C(=O)Nc3cc(-c4nc5cc(F)ccc5[nH]4)n(C)n3)cn2)C1 [Compound A-128, N-[5-(5-fluoro-1H-benzimidazol-2-yl)-1-methyl-pyrazol-3-yl]-6-(3-methoxyazetidin-1-yl)pyridine-3-carboxamide] | 300 to 1000
COCCOc1ccc(C(=O)Nc2cc(-c3nc4ccccc4[nH]3)[nH]n2)cc1C#N [Compound A-129, N-[5-(1H-benzimidazol-2-yl)-1H-pyrazol-3-yl]-3-cyano-4-(2-methoxyethoxy)benzamide] | 100 to 300
O=C(Nc1cc(-c2nc3ccccc3[nH]2)[nH]n1)c1ccc(OCCO)c(F)c1 [Compound A-130, N-[5-(1H-benzimidazol-2-yl)-1H-pyrazol-3-yl]-3-fluoro-4-(2-hydroxyethoxy)benzamide] | 300 to 1000
COC1CN(c2ccc(C(=O)Nc3cc(-c4nc5cccc(F)c5[nH]4)[nH]n3)cn2)C1 [Compound A-131, N-[5-(7-fluoro-1H-benzimidazol-2-yl)-1H-pyrazol-3-yl]-6-(3-methoxy-azetidin-1-yl)pyridine-3-carboxamide] | 100 to 300
COC1CN(c2ccc(C(=O)Nc3cc(-c4nc5cc(F)ccc5[nH]4)[nH]n3)cn2)C1 [Compound A-132, N-[5-(5-fluoro-1H-benzimidazol-2-yl)-1H-pyrazol-3-yl]-6-(3-methoxy-azetidin-1-yl)pyridine-3-carboxamide] | < 100
CN(C)C1CCN(c2ccc(C(=O)Nc3cc(-c4nc5cc(F)ccc5[nH]4)n(C)n3)cn2)CC1 [Compound A-133, 6-[4-(dimethylamino)-1-piperidyl]-N-[5-(5-fluoro-1H-benzimidazol-2-yl)-1-methyl-pyrazol-3-yl]pyridine-3-carboxamide] | 100 to 300
Cn1nc(NC(=O)c2ccc(N3CCC(O)CC3)nc2)cc1-c1nc2cccc(F)c2[nH]1 [Compound A-134] | 100 to 300
Cn1nc(NC(=O)c2ccc(N3CCOCC3)nc2)cc1-c1nc2cccc(F)c2[nH]1 [Compound A-135, N-[5-(4-fluoro-1H-benzimidazol-2-yl)-1-methyl-pyrazol-3-yl]-6-morpholino-pyridine-3-carboxamide] | 100 to 300
Cn1nc(NC(=O)c2ccc(N3CCC(CO)CC3)nc2)cc1-c1nc2cccc(F)c2[nH]1 [Compound A-136, N-[5-(4-fluoro-1H-benzimidazol-2-yl)-1-methyl-pyrazol-3-yl]-6-[4-(hydroxymethyl)-1-piperidyl]pyridine-3-carboxamide] | 100 to 300
COC1CN(c2ccc(C(=O)Nc3cc(-c4nc5cccc(F)c5[nH]4)n(C)n3)cn2)C1 [Compound A-137, N-[5-(4-fluoro-1H-benzimidazol-2-yl)-1-methyl-pyrazol-3-yl]-6-(3-methoxyazetidin-1-yl)pyridine-3-carboxamide] | 300 to 1000
O=C(NCc1ccccc1)Nc1cc(-c2nc3ccccc3[nH]2)[nH]n1 [Compound A-138, 1-[5-(1H-benzimidazol-2-yl)-1H-pyrazol-3-yl]-3-benzyl-urea] | > 1000
CN(C)C1CCN(c2ccc(C(=O)Nc3cc(-c4nc5cccc(F)c5[nH]4)n(C)n3)cn2)CC1 [Compound A-139, 6-[4-(dimethylamino)-1-piperidyl]-N-[5-(4-fluoro-1H-benzimidazol-2-yl)-1-methyl-pyrazol-3-yl]pyridine-3-carboxamide] | 100 to 300
O=C(Nc1ccccc1)Nc1cc(-c2nc3ccccc3[nH]2)[nH]n1 [Compound A-140, 1-[5-(1H-benzimidazol-2-yl)-1H-pyrazol-3-yl]-3-phenyl-urea] | > 1000
O=C(Nc1cc(-c2nc3cc(F)ccc3[nH]2)[nH]n1)c1ccc(OCCO)c(Cl)c1 [Compound A-141, 3-chloro-N-[5-(5-fluoro-1H-benzimidazol-2-yl)-1H-pyrazol-3-yl]-4-(2-hydroxyethoxy)benzamide] | 100 to 300
COCCN1CCN(c2ccc(C(=O)Nc3cc(-c4nc5ccccc5[nH]4)[nH]n3)cn2)CC1 [Compound A-142, N-[5-(1H-benzimidazol-2-yl)-1H-pyrazol-3-yl]-6-[4-(2-methoxyethyl)-piperazin-1-yl]pyridine-3-carboxamide] | < 100
O=C(Nc1cc(-c2nc3ccccc3[nH]2)[nH]n1)c1ccc(N2CCN(CCO)CC2)nc1 [Compound A-143, N-[5-(1H-benzimidazol-2-yl)-1H-pyrazol-3-yl]-6-[4-(2-hydroxyethyl)-piperazin-1-yl]pyridine-3-carboxamide] | 100 to 300
N#Cc1cc(C(=O)Nc2cc(-c3nc4ccccc4[nH]3)[nH]n2)ccc1OCCO [Compound A-144, N-[5-(1H-benzimidazol-2-yl)-1H-pyrazol-3-yl]-3-cyano-4-(2-hydroxy-ethoxy)benzamide] | > 1000

Structure (SMILES) | IC50 [nM]
CCOC(=O)[C@@H]1CCCN1c1ccc(C(=O)Nc2cc(-c3nc4cc(F)ccc4[nH]3)n(C)n2)cn1 [Compound A-145, ethyl (25)-1-[5-[[5-(5-fluoro-1H-benzimidazol-2-yl)-1-methyl-pyrazol-3-yl]carbamoyl]-2-pyridyl]pyrrolidine-2-carboxylate] | > 1000
CCOC(=O)[C@H]1CCCN1c1ccc(C(=O)Nc2cc(-c3nc4cc(F)ccc4[nH]3)n(C)n2)cn1 [Compound A-146, ethyl (2R)-1-[5-[[5-(5-fluoro-1H-benzimidazol-2-yl)-1-methyl-pyrazol-3-yl]carbamoyl]-2-pyridyl]pyrrolidine-2-carboxylate] | > 1000
CCOC(=O)[C@@H]1CCCN1c1ccc(C(=O)Nc2cc(-c3nc4cccc(F)c4[nH]3)n(C)n2)cn1 [Compound A-147, ethyl (2S)-1-[5-[[5-(4-fluoro-1H-benzimidazol-2-yl)-1-methyl-pyrazol-3-yl]carbamoyl]-2-pyridyl]pyrrolidine-2-carboxylate] | > 1000
Cn1nc(NC(=O)c2ccc(N3CCOCC3)nc2)cc1-c1nc2cc(F)ccc2[nH]1 [Compound A-148, N-[5-(5-fluoro-1H-benzimidazol-2-yl)-1-methyl-pyrazol-3-yl]-6-morpholino-pyridine-3-carboxamide] | 100 to 300
COCCN1CCN(c2ccc(C(=O)Nc3cc(-c4nc5cc(F)ccc5[nH]4)n(C)n3)cn2)CC1 [Compound A-149] | 100 to 300
Cn1nc(NC(=O)c2ccc(N3CCN(CCO)CC3)nc2)cc1-c1nc2cc(F)ccc2[nH]1 [Compound A-150] | 100 to 300
Cn1nc(NC(=O)c2ccc(N3CCC[C@H]3C(=O)O)nc2)cc1-c1nc2cc(F)ccc2[nH]1 [Compound A-151, (2S)-1-[5-[[5-(5-fluoro-1H-benzimidazol-2-yl)-1-methyl-pyrazol-3-yl]carbamoyl]-2-pyridyl]pyrrolidine-2-carboxylic acid] | > 1000
O=C(Nc1cc(-c2nc3ccccc3[nH]2)[nH]n1)c1ccc(OCCO)c(C(F)(F)F)c1 [Compound A-152, N-[5-(1H-benzimidazol-2-yl)-1H-pyrazol-3-yl]-4-(2-hydroxyethoxy)-3-(trifluoromethyl)benzamide] | < 100
COC1CCN(c2ccc(C(=O)Nc3cc(-c4nc5cc(F)ccc5[nH]4)n(C)n3)cn2)CC1 [Compound A-153, N-[5-(5-fluoro-1H-benzimidazol-2-yl)-1-methyl-pyrazol-3-yl]-6-(4-methoxy-1-piperidyl)pyridine-3-carboxamide] | 100 to 300
COCCN1CCN(c2ccc(C(=O)Nc3cc(-c4nc5cccc(F)c5[nH]4)n(C)n3)cn2)CC1 [Compound A-154] | 100 to 300
Cn1nc(NC(=O)c2ccc(N3CCC[C@H]3C(=O)O)nc2)cc1-c1nc2cccc(F)c2[nH]1 [Compound A-155, (2S)-1-[5-[[5-(7-fluoro-1H-benzimidazol-2-yl)-1-methyl-pyrazol-3-yl]carbamoyl]-2-pyridyl]pyrrolidine-2-carboxylic acid] | > 1000
O=C(O)CN1CCN(c2ccc(C(=O)Nc3cc(-c4nc5ccccc5[nH]4)[nH]n3)cn2)CC1 [Compound A-156, 2-[4-[5-[[5-(1H-benzimidazol-2-yl)-1H-pyrazol-3-yl]carbamoyl]-2-pyridyl]piperazin-1-yl]acetic acid] | > 1000
COC1CCN(c2ccc(C(=O)Nc3cc(-c4nc5cccc(F)c5[nH]4)n(C)n3)cn2)CC1 [Compound A-157] | 100 to 300
Cn1nc(NC(=O)c2ccc(N3CCN(CCO)CC3)nc2)cc1-c1nc2cccc(F)c2[nH]1 [Compound A-158] | 100 to 300
COC1CCN(c2ccc(C(=O)Nc3cc(-c4nc5ccccc5[nH]4)[nH]n3)cn2)CC1 [Compound A-159, N-[5-(1H-benzimidazol-2-yl)-1H-pyrazol-3-yl]-6-(4-methoxy-1-piperidyl)-pyridine-3-carboxamide] | < 100
Cn1nc(NC(=O)c2ccc(N3CCN(C4COC4)CC3)nc2)cc1-c1nc2cc(F)ccc2[nH]1 [Compound A-160] | 300 to 1000
COc1ccc2nc(-c3cc(NC(=O)c4ccc(OC)c(Cl)c4)n[nH]3)cn2c1 [Compound A-161, 3-chloro-4-methoxy-N-[5-(6-methoxyimidazo[1,2-a]pyridin-2-yl)-1H-pyrazol-3-yl]benzamide] | 100 to 300
COc1ccn2cc(-c3cc(NC(=O)c4ccc(OC)c(Cl)c4)n[nH]3)nc2c1 [Compound A-162, 3-chloro-4-methoxy-N-[5-(7-methoxyimidazo[1,2-a]pyridin-2-yl)-1H-pyrazol-3-yl]benzamide] | > 1000
COc1ccc(C(=O)Nc2cc(-c3cn4ccc(C)cc4n3)[nH]n2)cc1Cl [Compound A-163, 3-chloro-4-methoxy-N-[5-(7-methylimidazo[1,2-a]pyridin-2-yl)-1H-pyrazol-3-yl]benzamide] | 300 to 1000
